Source: US7012060B1, “TNF receptor and steroid hormone in a combined therapy” (priority 1995, dated 2006)
Marks after values point to notes of the source that are not given here.

Test system: septic shock induced by LPS + D-Galactosamine, in mice
Test: LPS+D-Galactosamine-induced septic shock model
Format: in vivo, SPF female BALB/c inbred mice
Protocol: The experiments were carried out in vivo on mice. The septic shock was induced by an i.p. administration of a mixture of LPS (0.1 μg/mouse) and D-Galactosamine (18 mg/mouse).
The treatment schedule for r-hTBP-1 based on repeated administrations (the total dose was divided into 4 administrations given at time 0 and […] and 24 hours after), was adopted. CHO r-hTBP-1 was tested, alone or in combination with DHEA, at dose levels of 62.5 and 125 μg/mouse (total dose).
DHEA was tested both in a single administration injected i.p. one hour before and contemporaneously to the septic shock-inducing agent at doses encompassed between 100 and 2.000 μg/mouse and in repeated treatment with the total dose (250 μg/mouse) divided into 4 injections given within 24 hours.
The above treatment schedules of DHEA (doses from 250 to 1,500 μl g/mouse) were followed also in combination with r-hTBP-1 which was tested at the total dose varying from 62.5 to 125 μg/mouse (divided into 4 administrations).
SPF female BALB/c inbred mice, 6–8 weeks (about 18–20 g b.w.), from Charles River were used throughout the whole study after an acclimatisation period of at least 7 days.
Unless otherwise specified, in all the experiments the mice were randomly divided into groups of 10 animals each.
Both substances were dissolved in saline. The mixture of LPS (0.1 μg/mouse) and D-Galactosamine (18 mg/mouse) was prepared by mixing equal volumes of these substances. The mixture was subsequently injected to animals by the i.p. route. This dose was selected under precious experiments as that inducing around 80% mortality calculated as the number of dead vs. total number of mice for each croup. The lethality was monitored after 24, 48, 72 and 96 hours and at day 7 post-treatment.
The drug was diluted in saline and injected by repeated administrations, i.e. i.v. immediately before the inoculum of LPS plus D-Galactosamine and s.c. 3, 6 and 24 hours later.
The effects of DHEA, alone or in combination with r-hTBP-1, were assayed after single i.p. administrations at different times in respect to LPS+D-Galactosamine injection; in particular, it was administered 1 hour before and contemporaneously to the septic shock-inducing agent.
A repeated treatment schedule was also investigated in which DHEA was administered at time 0 (septic shock induction) and 3, 6 and 24 hours later. DHEA was initially vehicled in a mixture of 2.5% alcohol and 10% rabbit serum in saline. To improve the solubility and standardise the preparation, the steroid was successively dispersed in a mixture of 2.5% alcohol and 10% phospholipid emulsion in saline.
The primary end point was the survival rate at 48 hours after induction of septic shock. The comparison of the effects of each treatment group vs. controls and among treatment groups was effected by Fisher's exact test, one-tailed. The same comparison was also performed at the other time points. The results in each treatment group were expressed as percent survival.
In all the experiments, percent survival values were calculated using the survival Tables for the follow up studies (Armitage P. Cap. XIV. Tavole di sopravvivenza in Statistica Medica, Feltrinelli, Milano). The χ^2-test was applied to each observation time by comparing the DHEA+r-hTBP-1 groups to the other groups.

Which results are given for `C[C@]12CC[C@H](O)CC1=CC[C@@H]1[C@@H]2CC[C@]2(C)C(=O)CC[C@@H]12` [DHEA, Dehydroepiandrosterone]?
protection (DHEA 1.000 μg contemporaneously with LPS+D-Gal vs same dose 1 hour before): higher protection; survival rate (DHEA 1.500 μg/mouse alone, 1 hour before): 40%; protective effects (DHEA 2.000 μg/mouse, 1 hour before LPS+D-Galactosamine, all time points): complete protection; % cumulative survival (DHEA 100 μg/mouse i.p. 1 hour before LPS + D-Gal, saline 10% rabbit serum, 24 hrs, 1st exp): 20%; % cumulative survival (DHEA 100 μg/mouse i.p. 1 hour before LPS + D-Gal, saline 10% rabbit serum, 48 hrs, 1st exp): 20%; % cumulative survival (DHEA 100 μg/mouse i.p. 1 hour before LPS + D-Gal, saline 10% rabbit serum, 72 hrs, 1st exp): 20%; % cumulative survival (DHEA 100 μg/mouse i.p. 1 hour before LPS + D-Gal, saline 10% rabbit serum, 96 hrs, 1st exp): 20%; protection (survival) (DHEA 250 μg/mouse alone at time 0, rabbit serum vehicle): 30%; survival rate (DHEA 250 μg/mouse divided into 4 inocula at 0, 3, 6 and 24 hours (group E), 48 hours): 40%; % cumulative survival (DHEA 250 μg/mouse i.p. at time 0, saline 10% rabbit serum, 24 hrs, 2nd exp.): 20%; % cumulative survival (DHEA 250 μg/mouse i.p. at time 0, saline 10% rabbit serum, 48 hrs, 2nd exp.): 20%; % cumulative survival (DHEA 250 μg/mouse i.p. at time 0, saline 10% rabbit serum, 72 hrs, 2nd exp.): 20%; % cumulative survival (DHEA 250 μg/mouse i.p. at time 0, saline 10% rabbit serum, 96 hrs, 2nd exp.): 20%; survival rate (DHEA 250 μg/mouse single injection (group D), 48 hours): 30%; % cumulative survival (DHEA 500 μg/mouse i.p. 1 hour before LPS + D-Gal, saline 10% rabbit serum, 24 hrs, 1st exp): 10%; % cumulative survival (DHEA 500 μg/mouse i.p. 1 hour before LPS + D-Gal, saline 10% rabbit serum, 48 hrs, 1st exp): 10%; % cumulative survival (DHEA 500 μg/mouse i.p. 1 hour before LPS + D-Gal, saline 10% rabbit serum, 72 hrs, 1st exp): 10%; % cumulative survival (DHEA 500 μg/mouse i.p. 1 hour before LPS + D-Gal, saline 10% rabbit serum, 96 hrs, 1st exp): 10%; % cumulative survival (DHEA 500 μg/mouse i.p. at time 0, saline 10% rabbit serum, 24 hrs, 1st exp.): 50%; % cumulative survival (DHEA 500 μg/mouse i.p. at time 0, saline 10% rabbit serum, 24 hrs, 2nd exp.): 30%; % cumulative survival (DHEA 500 μg/mouse i.p. at time 0, saline 10% rabbit serum, 48 hrs, 1st exp.): 40%; % cumulative survival (DHEA 500 μg/mouse i.p. at time 0, saline 10% rabbit serum, 48 hrs, 2nd exp.): 30%; % cumulative survival (DHEA 500 μg/mouse i.p. at time 0, saline 10% rabbit serum, 72 hrs, 1st exp.): 30%; % cumulative survival (DHEA 500 μg/mouse i.p. at time 0, saline 10% rabbit serum, 72 hrs, 2nd exp.): 30%; % cumulative survival (DHEA 500 μg/mouse i.p. at time 0, saline 10% rabbit serum, 96 hrs, 1st exp.): 30%; % cumulative survival (DHEA 500 μg/mouse i.p. at time 0, saline 10% rabbit serum, 96 hrs, 2nd exp.): 30%; % cumulative survival (DHEA 750 μg/mouse i.p. at time 0, saline 10% rabbit serum, 24 hrs, 1st exp.): 40%; % cumulative survival (DHEA 750 μg/mouse i.p. at time 0, saline 10% rabbit serum, 24 hrs, 2nd exp.): 50%; % cumulative survival (DHEA 750 μg/mouse i.p. at time 0, saline 10% rabbit serum, 48 hrs, 1st exp.): 40%; % cumulative survival (DHEA 750 μg/mouse i.p. at time 0, saline 10% rabbit serum, 48 hrs, 2nd exp.): 50%; % cumulative survival (DHEA 750 μg/mouse i.p. at time 0, saline 10% rabbit serum, 72 hrs, 1st exp.): 40%; % cumulative survival (DHEA 750 μg/mouse i.p. at time 0, saline 10% rabbit serum, 72 hrs, 2nd exp.): 50%; % cumulative survival (DHEA 750 μg/mouse i.p. at time 0, saline 10% rabbit serum, 96 hrs, 1st exp.): 40%; % cumulative survival (DHEA 750 μg/mouse i.p. at time 0, saline 10% rabbit serum, 96 hrs, 2nd exp.): 50%; % cumulative survival (DHEA 1000 μg/mouse i.p. 1 hour before LPS + D-Gal, saline 10% rabbit serum, 24 hrs, 2nd exp): 20%; % cumulative survival (DHEA 1000 μg/mouse i.p. 1 hour before LPS + D-Gal, saline 10% rabbit serum, 48 hrs, 2nd exp): 20%; % cumulative survival (DHEA 1000 μg/mouse i.p. 1 hour before LPS + D-Gal, saline 10% rabbit serum, 72 hrs, 2nd exp): 10%; % cumulative survival (DHEA 1000 μg/mouse i.p. 1 hour before LPS + D-Gal, saline 10% rabbit serum, 96 hrs, 2nd exp): 0%; % cumulative survival (DHEA 1000 μg/mouse i.p. at time 0, saline 10% rabbit serum, 24 hrs, 1st exp.): 80^a %; % cumulative survival (DHEA 1000 μg/mouse i.p. at time 0, saline 10% rabbit serum, 48 hrs, 1st exp.): 60%; % cumulative survival (DHEA 1000 μg/mouse i.p. at time 0, saline 10% rabbit serum, 72 hrs, 1st exp.): 60%; % cumulative survival (DHEA 1000 μg/mouse i.p. at time 0, saline 10% rabbit serum, 96 hrs, 1st exp.): 60%; % cumulative survival (DHEA 1500 μg/mouse i.p. 1 hour before LPS + D-Gal, saline 10% rabbit serum, 24 hrs, 2nd exp): 70^a %; % cumulative survival (DHEA 1500 μg/mouse i.p. 1 hour before LPS + D-Gal, saline 10% rabbit serum, 48 hrs, 2nd exp): 70^a %; % cumulative survival (DHEA 1500 μg/mouse i.p. 1 hour before LPS + D-Gal, saline 10% rabbit serum, 72 hrs, 2nd exp): 50%; % cumulative survival (DHEA 1500 μg/mouse i.p. 1 hour before LPS + D-Gal, saline 10% rabbit serum, 96 hrs, 2nd exp): 50%
